From BigSolDB 2.1

CCOc1ccccc1C(N)=O
solubility (mole fraction)
Details	293.15 K	298.15 K	303.15 K	308.15 K	313.15 K	318.15 K	323.15 K
in acetonitrile	0.00709	0.0091	0.0123	0.0167	0.022	0.0285	0.0377
in ethanol	0.0121	0.0162	0.0198	0.0252	0.0313	0.0392	0.0472
in isopropanol	0.0097	0.0125	0.0155	0.0189	0.024	0.0304	0.0391
in methanol	0.016	0.02	0.0252	0.0306	0.0392	0.0484	0.0596
